Results reported in PubChem BioAssay (NCI).
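Values below derive from 48-hour exposures of cells grown in 96-well plates, with endpoints linearly interpolated between the two concentrations bracketing the appropriate inhibition level. GI50 is the concentration that inhibits growth by half. Definition used: TGI = concentration required for complete inhibition of growth.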

Key:
Experiment in all cases: inhibition of tumour cell growth, NCI panel, 48 h
EKVX NSCLC = test system: EKVX NSCLC
CCRF-CEM leukemia = test system: CCRF-CEM leukemia
COLO 205 colon = test system: COLO 205 colon
M14 melanoma = test system: M14 melanoma
K-562 leukemia = test system: K-562 leukemia
TK-10 renal = test system: TK-10 renal
SF-539 CNS = test system: SF-539 CNS
UACC-257 melanoma = test system: UACC-257 melanoma
DU-145 prostate = test system: DU-145 prostate
SR leukemia = test system: SR leukemia

Row | Compound | GI50 (EKVX NSCLC) | TGI (EKVX NSCLC) | GI50 (CCRF-CEM leukemia) | TGI (CCRF-CEM leukemia) | GI50 (COLO 205 colon) | TGI (COLO 205 colon) | GI50 (M14 melanoma) | TGI (M14 melanoma) | GI50 (K-562 leukemia) | TGI (K-562 leukemia) | GI50 (TK-10 renal) | TGI (TK-10 renal) | GI50 (SF-539 CNS) | TGI (SF-539 CNS) | GI50 (UACC-257 melanoma) | TGI (UACC-257 melanoma) | GI50 (DU-145 prostate) | TGI (DU-145 prostate) | GI50 (SR leukemia) | TGI (SR leukemia)
1 | CCOC(=O)/C=C/C(=O)[C@H](CC(C)C)NC(=O)[C@H](Cc1ccccc1)NC(=O)OCc1ccccc1 | 15.6 µM | 29 µM | 2.58 µM | 18.8 µM | 2.46 µM | 5.83 µM | 3.54 µM | 13.2 µM | 2.09 µM | 10.5 µM | 1.87 µM | 3.81 µM | 2.45 µM | 6.04 µM | 15 µM | 29.2 µM | 3.1 µM | 11.5 µM | 2.39 µM | 6.32 µM
2 | N#Cc1c(N)nc(NCc2ccccc2)c(C#N)c1-c1ccc(Cl)cc1Cl | > 100 µM | > 100 µM | 10.2 µM | 28.6 µM | > 100 µM | > 100 µM | > 53.4 µM | > 100 µM | > 100 µM | > 100 µM | > 84.3 µM | > 100 µM | > 100 µM | > 100 µM | > 100 µM | > 100 µM | > 100 µM | > 100 µM | 2.07 µM | 21.8 µM
3 | CC1=C[C@H]2C[C@H](C)[C@H]3CC[C@H](C)[C@]4(C1)C(=O)C(O)=C(C)C(=O)[C@@]324 | 42.9 µM | > 100 µM | 11.7 µM | 31.5 µM | 19 µM | 48.9 µM | 29.7 µM | > 100 µM | 20 µM | 39.5 µM | 47.4 µM | > 100 µM | 52.6 µM | > 100 µM | 59.2 µM | > 100 µM | 43.3 µM | > 100 µM | 27.4 µM | 82.6 µM
4 | COc1ccccc1NS(=O)(=O)c1ccc2oc(SC(C)C)nc2c1 | 6.4 µM | 78.7 µM | 11.9 µM | 56.1 µM | 18.6 µM | 40.1 µM | 36.1 µM | > 100 µM | 3.73 µM | > 100 µM | 18.5 µM | 53.8 µM | 18.6 µM | 56.1 µM | 1.76 µM | 19.1 µM | 31.8 µM | > 100 µM | 3.62 µM | 24.4 µM
5 | CC1=C(C)C2(O)C(=C(C)C1=O)/C(=C(/O)c1ccccc1)c1nc3ccccc3n12 (centres undefined) | 24.5 µM | 60.4 µM | 12.2 µM | 38.5 µM | 17.2 µM | 31.3 µM | 23.5 µM | 52.7 µM | 24.5 µM | 52 µM | 20.1 µM | 58.9 µM | 21.7 µM | 44.5 µM | 16.5 µM | 33.4 µM | 26.8 µM | 68.6 µM | 10.9 µM | 37.6 µM
6 | COc1cccc(/C(C)=N/NC(=O)CSc2nc3ccccc3c(=O)n2CCc2ccc(S(N)(=O)=O)cc2)c1 | 5.81 µM | 33.9 µM | 5.31 µM | > 100 µM | 4.13 µM | 21.1 µM | 2.58 µM | 73 µM | 11.2 µM | > 100 µM | 2.36 µM | 5.42 µM | 1.88 µM | 3.98 µM | 10.9 µM | 36.7 µM | 3.35 µM | 10.6 µM | 0.481 µM | > 100 µM
7 | Cc1ccc(-c2nc(-c3cn(C)c4ncccc34)cs2)cc1 | 4.61 µM | 43.7 µM | 14.7 µM | > 80 µM | 2.82 µM | 10.5 µM | 2.35 µM | 8.18 µM | 1.91 µM | > 34.5 µM | 6.74 µM | 21.6 µM | 5.59 µM | 18.7 µM | 9.41 µM | 28 µM | 7.42 µM | 21.3 µM | 0.442 µM | 21.8 µM
8 | CN(C)c1ccc(C(c2ccc(Cl)cc2)c2ccc(N(C)C)cc2)cc1 |  | > 100 µM |  | > 100 µM |  | > 100 µM |  | > 100 µM |  | > 100 µM |  | > 100 µM |  | > 100 µM |  | > 100 µM |  | > 100 µM |  | > 100 µM
9 | CCS(=O)(=O)c1ccc(OC)c(Nc2ncc(-c3ccccc3Cl)o2)c1 | > 21.3 µM | > 25 µM | 9.78 µM | > 25 µM | 6.67 µM | 15.4 µM | 12.5 µM | > 25 µM | 11 µM | > 25 µM | 16.6 µM | > 25 µM | 10.6 µM | > 25 µM | > 25 µM | > 25 µM | 10.1 µM | > 25 µM | 15.5 µM | > 25 µM
10 | N#CN1CC[C@H](C(=O)Nc2cc3cc(C(N)=O)ccc3cn2)C1 | 0.258 µM | 6.87 µM | 0.029 µM | > 100 µM | 0.0855 µM | 0.268 µM | 0.0694 µM | 1.13 µM | 0.131 µM | > 54.2 µM | 0.232 µM | 2.44 µM | 0.0589 µM | 0.319 µM | 0.22 µM | 0.904 µM | 0.357 µM | > 65.4 µM | 0.0347 µM | 
